{
  "source": "patent US9809597B2",
  "about": "“Ganciclovir derivatives for modulating innate and adaptive immunity and for use in immunotherapy” (The Board of Trustees of the Leland Stanford Junior …, priority 2015, dated 2017)",
  "key": {"BV-2 microglia [1]": {"tested_on": "BV-2 microglia", "test": "Secreted factors analyzed by Luminex array in BV-2 supernatants", "type": "cell-based, mouse", "protocol": "(§1) BV-2 mouse microglia cells were grown in DMEM+10% FBS and THP-1 human monocyte cells were grown in RPMI-40+10% FBS+0.05 mM β-mercaptoethanol at 37° C., 5% CO2. Adherent cells were split using 1×TrypLE (Gibco). For cellular assays, cells were treated with the following concentrations of drugs as indicated in the DMEM without serum: 100-200 μM ganciclovir, 10 ng/ml IFNγ (R&D systems), 100 ng/ml LPS (Sigma-Aldrich), 1-10 μM Fludarabine (Selleckchem), 1 μM Ruxolitinib (Selleckchem), 1 μM TG-101348 (Selleckchem), 1 μM Amlexanox (Tocris bioscience) unless otherwise noted. All experiments were run in triplicates and replicated at least 3 times with cell lines and at least twice with primary microglia. Average data are shown for cell lines and representative data are shown for primary cells. Secreted signaling proteins were measured in supernatants from cultured cells stimulated with GCV and conditioned for 24 hours in the absence of serum using two independent Luminex arrays (Human Immune Monitoring Center, Stanford and Eve technologies, Canada). Nitrite assay was performed on conditioned culture supernatants of cells stimulated with drugs for 24 hours using the Griess Reagent System (Promega) according to manufacturer's instructions. To assess cellular viability, cell confluence was measured using an automated microscope (Cellavista; Roche)."}, "BV-2 microglia [2]": {"tested_on": "BV-2 microglia", "test": "Cell viability (cell confluence, automated microscope)", "type": "cell-based, mouse", "conditions": "GCV dose response", "protocol": "as §1"}, "[3]": {"tested_on": "THP-1 human monocyte cells", "test": "RT-PCR for CXCL10 in THP-1 cells", "type": "cell-based", "conditions": "200 μM, 8-24 hours", "protocol": "as §1, with “Roche). […]” for “Roche).”"}, "BV-2 cells": {"tested_on": "BV-2 cells", "test": "RT-PCR for CXCL10 and IFNβ transcripts in BV-2 cells", "type": "cell-based, mouse", "protocol": "as §1\n(§2) RNA was isolated from cells using RNeasy mini kit from Qiagen. DNased RNA was converted to cDNA using SuperScript III reverse transcriptase kit (Life technologies). The cDNA was used to quantify specific targets using SYBR green in Roche Lightcycler 480. ΔΔCt values normalized against the experimental control to determine fold change in mRNA for each sample compared to untreated or vehicle treated control. β-actin or Ubc or both were used as housekeeping genes. Primer sequences were obtained from PrimerBank. Fold change is shown compared to the vehicle treated or untreated cells, unless otherwise noted."}, "primary microglia": {"tested_on": "primary microglia", "test": "RT-PCR for CXCL10 and IFNβ transcripts in primary microglia (wildtype, tk KO, STING^gt/gt)", "type": "cell-based, mouse", "conditions": "200 μM, 6 hours", "protocol": "Mice were housed and bred according to the Institutional Animal Care and Use Committee guidelines. Primary microglia and astrocytes were isolated from P0-P3 C57BL/6 mouse pups. Cortices from pups were isolated, meninges removed and tissue was dissociated using a 25-gauge needle. Two cortices were plated on each poly-L-lysine coated T-75 flasks in DMEM/F12+10% FBS+1% penicillin/streptomycin. Microglia and astrocyte co-cultures were maintained for 3 weeks, after which microglia were isolated using CD11b magnetic beads (Miltenyi Biotec) according to the manufacturer's instructions. Isolated microglia were allowed to recover for 1-2 days and processed for cellular assays described above.\nFor tk KO experiments only, microglia were isolated from adult mouse brains using the neural dissociation kit (Miltenyi Biotec) according to manufacturer's protocol followed by CD11b magnetic bead enrichment. Isolated cells were cultured for 3-4 days before the experiment.\nas §2"}, "[4]": {"tested_on": "wildtype and STING^gt/gt mice with EAE", "conditions": "mouse model for multiple sclerosis, therapeutic doses equivalent to those in humans (Ding et al. 2014); cited from earlier work"}, "BV-2 microglia [5]": {"tested_on": "BV-2 microglia", "test": "siRNA knockdown (STING, IRF3, Stat1, Jak2), then RT-PCR for CXCL10", "type": "cell-based, mouse", "protocol": "Smartpool siRNAs against mouse targets were bought from Dharmacon and transfected in microglia cells using Viromer Blue from Lipocalyx at a concentration of 50 nM according to manufacturer's instructions. Drugs were added cells after 24 hours of transfection and assays done 24 hours after addition of drugs.\nas §2"}, "[6]": {"tested_on": "wildtype and STING^gt/gt mice with EAE", "test": "EAE induction and analysis", "type": "in vivo, mouse"}, "[7]": {"tested_on": "IFNγ/LPS stimulated BV-2 microglia", "test": "Nitrite assay (Griess) on culture supernatants", "type": "cell-based, mouse", "conditions": "24 hours", "protocol": "as §1"}, "[8]": {"conditions": "BV-2 culture supernatants, no exogenous stimulation, 24 hours GCV"}, "[9]": {"conditions": "adult tk1 knockout primary microglia"}, "[10]": {"conditions": "primary microglia lacking functional STING"}, "[11]": {"conditions": "BV-2 microglia, siRNA 24 hours, then 200 μM for 24 hours"}, "[12]": {"conditions": "STING^gt/gt mice with EAE, day 18"}, "[13]": {"conditions": "STING^gt/gt mice, 18 days following disease induction"}, "[14]": {"conditions": "cerebella of wildtype mice with EAE, day 18"}},
  "data": [
    {"smiles": "Nc1nc(O)c2ncn(COC(CO)CO)c2n1", "note": "[GCV, Ganciclovir]", "values": [
      {"measurement": "CCL2", "setting": "BV-2 microglia [1]; 100 μM GCV, 24 hours", "value": "28.8 ± 1.08", "unit": "pg/mL"},
      {"measurement": "IL12p70", "setting": "BV-2 microglia [1]; 100 μM GCV, 24 hours", "value": "0.34 ± 0.05", "unit": "pg/mL"},
      {"measurement": "IL17A", "setting": "BV-2 microglia [1]; 100 μM GCV, 24 hours", "value": "3.5 ± 0.12", "unit": "pg/mL"},
      {"measurement": "MCSF", "setting": "BV-2 microglia [1]; 100 μM GCV, 24 hours", "value": "23.76 ± 3.77", "unit": "pg/mL"},
      {"measurement": "MIP1β", "setting": "BV-2 microglia [1]; 100 μM GCV, 24 hours", "value": "537.14 ± 449.94", "unit": "ng/mL"},
      {"measurement": "MIP2", "setting": "BV-2 microglia [1]; 100 μM GCV, 24 hours", "value": "14.77 ± 1.50", "unit": "pg/mL"},
      {"measurement": "TGFβ", "setting": "BV-2 microglia [1]; 100 μM GCV, 24 hours", "value": "6.04 ± 0.58", "unit": "pg/mL"},
      {"measurement": "VEGF", "setting": "BV-2 microglia [1]; 100 μM GCV, 24 hours", "value": "1.65 ± 0.51", "unit": "pg/mL"},
      {"measurement": "CCL2", "setting": "BV-2 microglia [1]; 200 μM GCV, 24 hours", "value": "28.25 ± 2.19", "unit": "pg/mL"},
      {"measurement": "IL12p70", "setting": "BV-2 microglia [1]; 200 μM GCV, 24 hours", "value": "0.16 ± 0.11", "unit": "pg/mL"},
      {"measurement": "IL17A", "setting": "BV-2 microglia [1]; 200 μM GCV, 24 hours", "value": "2.54 ± 1.28", "unit": "pg/mL"},
      {"measurement": "IL22", "setting": "BV-2 microglia [1]; 200 μM GCV, 24 hours", "value": "3.09 ± 2.25", "unit": "pg/mL"},
      {"measurement": "MCSF", "setting": "BV-2 microglia [1]; 200 μM GCV, 24 hours", "value": "25.48 ± 8.28", "unit": "pg/mL"},
      {"measurement": "MIP1β", "setting": "BV-2 microglia [1]; 200 μM GCV, 24 hours", "value": "4.13 ± 3.36", "unit": "ng/mL"},
      {"measurement": "MIP2", "setting": "BV-2 microglia [1]; 200 μM GCV, 24 hours", "value": "13.02 ± 4.25", "unit": "pg/mL"},
      {"measurement": "TGFβ", "setting": "BV-2 microglia [1]; 200 μM GCV, 24 hours", "value": "5.36 ± 3.30", "unit": "pg/mL"},
      {"measurement": "VEGF", "setting": "BV-2 microglia [1]; 200 μM GCV, 24 hours", "value": "1.56 ± 0.27", "unit": "pg/mL"},
      {"measurement": "secreted CCL5 protein", "setting": "BV-2 microglia [1]; [8]", "value": "significantly increasing"},
      {"measurement": "secreted CXCL10 protein", "setting": "BV-2 microglia [1]; [8]", "value": "significantly increasing"},
      {"measurement": "secreted IL-18 protein", "setting": "BV-2 microglia [1]; [8]", "value": "decreasing"},
      {"measurement": "secreted IL-22 protein", "setting": "BV-2 microglia [1]; [8]", "value": "significantly increasing"},
      {"measurement": "secreted TNFα protein", "setting": "BV-2 microglia [1]; [8]", "value": "significantly increasing"},
      {"measurement": "toxicity (cell viability)", "setting": "BV-2 microglia [2]", "value": "without causing any toxicity"},
      {"measurement": "induction of CXCL10 mRNA in human monocyte cell line", "setting": "[3]", "value": "induced"},
      {"measurement": "induction of CXCL10 mRNA on neutralization of IFNβ with an antibody", "setting": "BV-2 cells; BV-2 cells, 200 μM with anti-IFNβ antibody, 4 hours", "value": "partly reduced"},
      {"measurement": "EC50", "setting": "BV-2 cells; Mus musculus, BV-2 microglia, dose response, read-out: EC50, increase of CXCL10 transcript", "value": "~160", "unit": "µM"},
      {"measurement": "induction of IFNβ transcript", "setting": "BV-2 cells; microglia (BV-2, primary), 200 μM", "value": "induced"},
      {"measurement": "CXCL10 mRNA in microglia from tk1 knockout mice", "setting": "primary microglia; [9]", "value": "at levels seen in treated wild type microglia"},
      {"measurement": "IFNβ mRNA in microglia from tk1 knockout mice", "setting": "primary microglia; [9]", "value": "at levels seen in treated wild type microglia"},
      {"measurement": "induction of CXCL10 mRNA in STING^gt/gt primary microglia", "setting": "primary microglia; [10]", "value": "failed to induce"},
      {"measurement": "induction of IFNβ mRNA in STING^gt/gt primary microglia", "setting": "primary microglia; [10]", "value": "failed to induce"},
      {"measurement": "disease course and pathology of EAE", "setting": "[4]", "value": "ameliorates the disease course and pathology"},
      {"measurement": "CXCL10 or IFNβ mRNA expression after siRNA knockdown of Stat1 and Jak2 or lack of Stat1", "setting": "BV-2 microglia [5]; BV-2 cells (siRNA) or Stat1 knockout primary microglia, 200 μM", "value": "significantly reduced"},
      {"measurement": "capacity to induce CXCL10 after siRNA knock down of STING", "setting": "BV-2 microglia [5]; [11]", "value": "to a lesser extent"},
      {"measurement": "potential to induce CXCL10 mRNA after siRNA knockdown of IRF3", "setting": "BV-2 microglia [5]; [11]", "value": "inhibited"},
      {"measurement": "overall Iba1 immunoreactivity", "setting": "[6]; [12]", "value": "trend towards reducing"},
      {"measurement": "overall cell proliferation", "setting": "[6]; [12]", "value": "no reduction"},
      {"measurement": "proliferating T-cells", "setting": "[6]; [12]", "value": "no reduction"},
      {"measurement": "proliferating microglia", "setting": "[6]; [12]", "value": "no reduction"},
      {"measurement": "disease severity and incidence compared to untreated mice", "setting": "[6]; [13]", "value": "not significantly different"},
      {"measurement": "lethality compared to untreated mice", "setting": "[6]; [13]", "value": "even higher"},
      {"measurement": "effect on EAE in mice lacking STING", "setting": "[6]; STING^gt/gt mice, GCV 100 mg/kg daily", "value": "only partially ameliorated EAE during the early phase of disease"},
      {"measurement": "CD3+BrDU+ proliferating T-cells", "setting": "[6]; [14]", "value": "did not change"},
      {"measurement": "Iba1+BrDU+ proliferating microglia", "setting": "[6]; [14]", "value": "significantly decreased"},
      {"measurement": "numbers of BrDU+ proliferating cells", "setting": "[6]; [14]", "value": "significantly decreased"},
      {"measurement": "numbers of Iba1+ microglia", "setting": "[6]; [14]", "value": "significantly decreased"},
      {"measurement": "lethality", "setting": "[6]; wildtype mice, 18 days following disease induction, untreated 20%", "value": 0, "unit": "%"},
      {"measurement": "disease incidence", "setting": "[6]; wildtype mice, 18 days following disease induction, untreated 100%", "value": 40, "unit": "%"},
      {"measurement": "disease severity (EAE score)", "setting": "[6]; wildtype mice, GCV 100 mg/kg intra-peritoneally daily from day 3", "value": "drastically reduces disease severity"},
      {"measurement": "microglial nitric oxide production (nitrite assay)", "setting": "[7]", "value": "reduction"}
    ]}
  ]
}
